Results taken from the NIST ThermoML archive (doi:10.1016/j.tca.2006.04.001).
Numbers after ± are expanded uncertainties.

Details: Liquid, Pycnometric method

CCCCCCCCCCCCCCCCCCC [nonadecane]
Details	specific volume [m3/kg]
305.45 K	0.0013 ± 1.9e-05
307.55 K	0.001303 ± 2e-05
309.55 K	0.001304 ± 2e-05
311.65 K	0.001304 ± 2e-05
313.65 K	0.001307 ± 2e-05
315.75 K	0.001309 ± 2e-05
317.75 K	0.001311 ± 2e-05
319.85 K	0.001313 ± 2e-05
321.95 K	0.001316 ± 2e-05
323.95 K	0.001319 ± 2e-05
326.05 K	0.001322 ± 2e-05
328.05 K	0.001321 ± 2e-05
330.15 K	0.001324 ± 2e-05
332.25 K	0.001327 ± 2e-05
334.25 K	0.001329 ± 2e-05
336.35 K	0.001331 ± 2e-05
338.35 K	0.001335 ± 2e-05
340.45 K	0.001337 ± 2e-05
342.55 K	0.001339 ± 2e-05
344.55 K	0.001338 ± 2e-05
346.65 K	0.001344 ± 2e-05
348.65 K	0.001345 ± 2e-05
350.75 K	0.001346 ± 2e-05
352.85 K	0.001348 ± 2e-05
354.85 K	0.001353 ± 2e-05
356.95 K	0.001355 ± 2e-05
358.95 K	0.001357 ± 2e-05
361.05 K	0.001359 ± 2e-05
363.15 K	0.001362 ± 2.1e-05
365.15 K	0.001365 ± 2.1e-05
367.25 K	0.001368 ± 2.1e-05
369.25 K	0.00137 ± 2.1e-05
371.35 K	0.001373 ± 2.1e-05
373.45 K	0.001374 ± 2.1e-05
375.45 K	0.001376 ± 2.1e-05
377.55 K	0.001379 ± 2.1e-05
379.55 K	0.001382 ± 2.1e-05
381.65 K	0.001385 ± 2.1e-05
383.75 K	0.001389 ± 2.1e-05
385.75 K	0.001391 ± 2.1e-05
387.85 K	0.001394 ± 2.1e-05
389.85 K	0.001396 ± 2.1e-05
391.95 K	0.001401 ± 2.1e-05
393.95 K	0.001404 ± 2.1e-05
396.05 K	0.001405 ± 2.1e-05
398.15 K	0.001405 ± 2.1e-05
400.15 K	0.00141 ± 2.1e-05
402.25 K	0.001412 ± 2.1e-05
404.25 K	0.001415 ± 2.1e-05
406.35 K	0.001418 ± 2.1e-05
408.45 K	0.001422 ± 2.1e-05
410.45 K	0.001426 ± 2.1e-05
412.55 K	0.001429 ± 2.2e-05
414.55 K	0.001434 ± 2.2e-05
416.65 K	0.001436 ± 2.2e-05
418.75 K	0.001439 ± 2.2e-05
420.75 K	0.001439 ± 2.2e-05
422.85 K	0.001442 ± 2.2e-05
424.85 K	0.001447 ± 2.2e-05
426.95 K	0.00145 ± 2.2e-05
429.05 K	0.001452 ± 2.2e-05
431.05 K	0.001456 ± 2.2e-05
433.15 K	0.001457 ± 2.2e-05
435.15 K	0.001461 ± 2.2e-05
437.25 K	0.001464 ± 2.2e-05
439.35 K	0.001466 ± 2.2e-05
441.35 K	0.001469 ± 2.2e-05
443.45 K	0.001475 ± 2.2e-05
445.45 K	0.001479 ± 2.2e-05
447.55 K	0.001481 ± 2.2e-05
449.65 K	0.001485 ± 2.2e-05
451.65 K	0.001485 ± 2.2e-05
453.75 K	0.001492 ± 2.3e-05
455.75 K	0.001495 ± 2.3e-05
457.85 K	0.001498 ± 2.3e-05
459.95 K	0.001504 ± 2.3e-05
461.95 K	0.001506 ± 2.3e-05
464.05 K	0.001508 ± 2.3e-05
466.05 K	0.001514 ± 2.3e-05
468.15 K	0.001514 ± 2.3e-05
470.25 K	0.00152 ± 2.3e-05
472.25 K	0.001523 ± 2.3e-05
474.35 K	0.001527 ± 2.3e-05
476.35 K	0.00153 ± 2.3e-05
478.45 K	0.001533 ± 2.3e-05
480.45 K	0.001536 ± 2.3e-05
482.55 K	0.001543 ± 2.3e-05
484.65 K	0.001546 ± 2.3e-05
486.65 K	0.001549 ± 2.3e-05
488.75 K	0.001549 ± 2.3e-05
490.75 K	0.001557 ± 2.3e-05
492.85 K	0.00156 ± 2.3e-05
494.95 K	0.001563 ± 2.3e-05
496.95 K	0.001566 ± 2.4e-05
499.05 K	0.001569 ± 2.4e-05
501.05 K	0.001575 ± 2.4e-05
503.15 K	0.001578 ± 2.4e-05
505.25 K	0.001582 ± 2.4e-05
507.25 K	0.001586 ± 2.4e-05
509.35 K	0.001592 ± 2.4e-05
511.35 K	0.001594 ± 2.4e-05
513.45 K	0.001599 ± 2.4e-05
515.55 K	0.001604 ± 2.4e-05
517.55 K	0.001609 ± 2.4e-05
519.65 K	0.001609 ± 2.4e-05
521.65 K	0.001615 ± 2.4e-05
523.75 K	0.00162 ± 2.4e-05
525.85 K	0.001625 ± 2.4e-05
531.35 K	0.001634 ± 2.5e-05
533.25 K	0.001639 ± 2.5e-05
535.25 K	0.001641 ± 2.5e-05
537.15 K	0.001646 ± 2.5e-05
539.15 K	0.001649 ± 2.5e-05
541.05 K	0.001653 ± 2.5e-05
543.05 K	0.001659 ± 2.5e-05
544.95 K	0.001663 ± 2.5e-05
546.85 K	0.001667 ± 2.5e-05
548.85 K	0.00167 ± 2.5e-05
550.75 K	0.001676 ± 2.5e-05
552.75 K	0.00168 ± 2.5e-05
554.65 K	0.001683 ± 2.5e-05
556.65 K	0.001687 ± 2.5e-05
558.55 K	0.001692 ± 2.5e-05
560.45 K	0.001697 ± 2.6e-05
562.45 K	0.001702 ± 2.6e-05
564.35 K	0.001707 ± 2.6e-05
566.35 K	0.001711 ± 2.6e-05
568.25 K	0.001717 ± 2.6e-05
570.25 K	0.001722 ± 2.6e-05
572.15 K	0.001725 ± 2.6e-05
574.05 K	0.001732 ± 2.6e-05
576.05 K	0.001737 ± 2.6e-05
